≈ marks a conversion by molar mass, not a printed value. Calls of active or inactive are those of the source. The rule behind the calls is not given here.
What was measured:
Escherichia coli [1] = experiment: Antibacterial activity against Escherichia coli ATCC 35218 assessed as inhibition of bacterial growth measured after 18 to 20 hrs by broth microdilution method; assay type: functional; details: time 18-20 hrs
Escherichia coli [2] = experiment: Antibacterial activity against Escherichia coli 14-2 assessed as inhibition of bacterial growth measured after 18 to 20 hrs by broth microdilution method; assay type: functional; details: time 18-20 hrs
Escherichia coli [3] = experiment: Antibacterial activity against Escherichia coli 14-4 assessed as inhibition of bacterial growth measured after 18 to 20 hrs by broth microdilution method; assay type: functional; details: time 18-20 hrs
Klebsiella pneumoniae [4] = experiment: Antibacterial activity against Klebsiella pneumoniae 15-1 assessed as inhibition of bacterial growth measured after 18 to 20 hrs by broth microdilution method; assay type: functional; details: time 18-20 hrs
Klebsiella pneumoniae [5] = experiment: Antibacterial activity against Klebsiella pneumoniae 15-4 assessed as inhibition of bacterial growth measured after 18 to 20 hrs by broth microdilution method; assay type: functional; details: time 18-20 hrs
Klebsiella pneumoniae [6] = experiment: Antibacterial activity against Klebsiella pneumoniae 15-5 assessed as inhibition of bacterial growth measured after 18 to 20 hrs by broth microdilution method; assay type: functional; details: time 18-20 hrs
Acinetobacter baumannii [7] = experiment: Antibacterial activity against Acinetobacter baumannii 17-2 assessed as inhibition of bacterial growth measured after 18 to 20 hrs by broth microdilution method; assay type: functional; details: time 18-20 hrs
Acinetobacter baumannii [8] = experiment: Antibacterial activity against Acinetobacter baumannii 17-8 assessed as inhibition of bacterial growth measured after 18 to 20 hrs by broth microdilution method; assay type: functional; details: time 18-20 hrs
Pseudomonas aeruginosa [9] = experiment: Antibacterial activity against Pseudomonas aeruginosa 17-1 assessed as inhibition of bacterial growth measured after 18 to 20 hrs by broth microdilution method; assay type: functional; details: time 18-20 hrs
Pseudomonas aeruginosa [10] = experiment: Antibacterial activity against Pseudomonas aeruginosa 19-5 assessed as inhibition of bacterial growth measured after 18 to 20 hrs by broth microdilution method; assay type: functional; details: time 18-20 hrs
Pseudomonas aeruginosa [11] = experiment: Antibacterial activity against Pseudomonas aeruginosa T-2022 assessed as inhibition of bacterial growth measured after 18 to 20 hrs by broth microdilution method; assay type: functional; details: time 18-20 hrs
Pseudomonas aeruginosa [12] = experiment: Antibacterial efficacy against multi drug resistant Pseudomonas aeruginosa T-2022-D2-048 infected in cyclophosphamide-induced neutropenic thigh infection ICR mouse model assessed as decrease in bacterial burden at 40 mg/kg, iv dose measured after 24 hrs; assay type: functional, organism-based
HepG2 [13] = experiment: Cytotoxicity against human HepG2 cells assessed as inhibition of cell growth incubated for 24 hrs by CCK8 method; assay type: functional, cell-based; details: HepG2, 24 h
HepG2 [14] = experiment: Cytotoxicity against human HepG2 cells assessed as inhibition of cell growth at 100 uM incubated for 24 hrs by CCK8 method relative to control; assay type: functional
[15] = Cytotoxicity against HEK293T cells assessed as inhibition of cell growth incubated for 24 hrs by CCK8 method; assay type: toxicity, cell-based, HEK-293T; details: human
[16] = Cytotoxicity against HEK293T cells assessed as inhibition of cell growth at 100 uM incubated for 24 hrs by CCK8 method relative to control; assay type: toxicity, cell-based, HEK-293T; details: human
Jurkat [17] = experiment: Cytotoxicity against human Jurkat cells assessed as inhibition of cell growth incubated for 24 hrs by CCK8 method; assay type: functional, cell-based
Jurkat [18] = experiment: Cytotoxicity against human Jurkat cells assessed as inhibition of cell growth at 100 uM incubated for 24 hrs by CCK8 method relative to control; assay type: functional
Pseudomonas aeruginosa [19] = experiment: Antibacterial efficacy against multi drug resistant Pseudomonas aeruginosa T-2022-D2-048 infected in cyclophosphamide-induced neutropenic thigh infection ICR mouse model assessed as decrease in bacterial burden administered as iv dose measured after 24 hrs; assay type: functional, organism-based; details: dose 3-12 mg/kg
[20] = AUC (0 to t) in Sprague-Dawley rat at 10 mg/kg, iv measured upto 24 hrs LC-MS/MS analysis; assay type: ADME, organism-based; details: Sprague-Dawley, in vivo
[21] = MRT in Sprague-Dawley rat at 10 mg/kg, iv measured upto 24 hrs LC-MS/MS analysis; assay type: ADME, organism-based; details: in vivo
[22] = Half life in Sprague-Dawley rat at 10 mg/kg, iv measured upto 24 hrs LC-MS/MS analysis; assay type: ADME, organism-based; details: in vivo
[23] = Clearance in Sprague-Dawley rat at 10 mg/kg, iv measured upto 24 hrs LC-MS/MS analysis; assay type: ADME, organism-based; details: in vivo
[24] = Volume of distribution at steady state in Sprague-Dawley rat at 10 mg/kg, iv measured upto 24 hrs LC-MS/MS analysis; assay type: ADME, organism-based; details: in vivo, read-out: Vdss

Row | Compound | MIC (Escherichia coli [1]) | MIC (Escherichia coli [2]) | MIC (Escherichia coli [3]) | MIC (Klebsiella pneumoniae [4]) | MIC (Klebsiella pneumoniae [5]) | MIC (Klebsiella pneumoniae [6]) | MIC (Acinetobacter baumannii [7]) | MIC (Acinetobacter baumannii [8]) | MIC (Pseudomonas aeruginosa [9]) | MIC (Pseudomonas aeruginosa [10]) | IC50 (HepG2 [13]) | inhibition at 100 µM (HepG2 [14]) | IC50 at 24 h [15] | inhibition at 24 h, 100 µM [16] | IC50 (Jurkat [17]) | inhibition at 100 µM (Jurkat [18]) | further results
1 | C[C@@H](O)[C@H]1C(=O)N2C(C(=O)O)=C(S[C@@H]3CN[C@H](C(=O)N(C)C)C3)[C@H](C)[C@H]12 [MEROPENEM] | 0.06 µg/mL (≈ 0.156 µM) | 2 µg/mL (≈ 5.22 µM) | 2 µg/mL (≈ 5.22 µM) | > 64 µg/mL | > 64 µg/mL | > 64 µg/mL | > 64 µg/mL | > 64 µg/mL | 8 µg/mL (≈ 20.9 µM) | 32 µg/mL (≈ 83.4 µM) |  |  |  |  |  |  | MIC (Pseudomonas aeruginosa [11]): > 64 µg/mL; Activity (Pseudomonas aeruginosa [12]): Active
2 | CCCSSCc1ccc(-c2ncc(C(=O)N[C@@H](CCN)C(=O)N(C)[C@@H]3C(=O)N[C@@H](C)C(=O)N[C@H](C(=O)NCC#N)Cc4ccc(OCCN)c(c4)-c4cc3ccc4OCCN)c(C)n2)cc1.O=C(O)C(F)(F)F.O=C(O)C(F)(F)F.O=C(O)C(F)(F)F.O=C(O)C(F)(F)F | ≤ 0.03 µg/mL | ≤ 0.03 µg/mL | ≤ 0.03 µg/mL | ≤ 0.03 µg/mL | 0.06 µg/mL | ≤ 0.03 µg/mL | 0.25 µg/mL | 0.125 µg/mL | 4 µg/mL | 8 µg/mL | > 100 µM | -3.61% | > 100 µM | 29.9% | > 100 µM | 32.5% | 
3 | Cc1nc(-c2ccc(CSSC(C)(C)C)cc2)ncc1C(=O)N[C@@H](CCN)C(=O)N(C)[C@@H]1C(=O)N[C@@H](C)C(=O)N[C@H](C(=O)O)Cc2ccc(OCCN)c(c2)-c2cc1ccc2OCCN.O=C(O)C(F)(F)F.O=C(O)C(F)(F)F.O=C(O)C(F)(F)F.O=C(O)C(F)(F)F | ≤ 0.03 µg/mL | ≤ 0.03 µg/mL | ≤ 0.03 µg/mL | ≤ 0.03 µg/mL | ≤ 0.03 µg/mL | ≤ 0.03 µg/mL | 0.25 µg/mL | 0.5 µg/mL | 4 µg/mL | 32 µg/mL | > 100 µM | -0.02% | > 100 µM | 36.6% | > 100 µM | 27.7% | 
4 | Cc1nc(-c2ccc(SSC(C)(C)C)cc2)ncc1C(=O)N[C@@H](CCN)C(=O)N(C)[C@@H]1C(=O)N[C@@H](C)C(=O)N[C@H](C(=O)NCC#N)Cc2ccc(OCCN)c(c2)-c2cc1ccc2OCCN.O=C(O)C(F)(F)F.O=C(O)C(F)(F)F.O=C(O)C(F)(F)F.O=C(O)C(F)(F)F | ≤ 0.03 µg/mL | ≤ 0.03 µg/mL | ≤ 0.03 µg/mL | ≤ 0.03 µg/mL | ≤ 0.03 µg/mL | ≤ 0.03 µg/mL | 0.25 µg/mL | 0.5 µg/mL | 4 µg/mL | 4 µg/mL | > 100 µM | -1.65% | > 100 µM | 51.5% | > 100 µM | 38.2% | 
5 | C[C@H]1COc2c(N3CCN(C)CC3)c(F)cc3c(=O)c(C(=O)O)cn1c23 [LEVOFLOXACIN ANHYDROUS] |  |  |  |  |  |  |  |  |  |  |  |  |  |  |  |  | MIC (Pseudomonas aeruginosa [11]): > 64 µg/mL
6 | Cc1nc(-c2ccc(CSSC(C)(C)C)cc2)ncc1C(=O)N[C@@H](CCN)C(=O)N(C)[C@@H]1C(=O)N[C@@H](C)C(=O)N[C@H](C(=O)NCC#N)Cc2ccc(OCCN)c(c2)-c2cc1ccc2OCCN |  |  |  |  |  |  |  |  |  |  |  |  |  |  |  |  | Activity (Pseudomonas aeruginosa [19]): Dose-Dependent Effect
7 | Cc1nc(-c2ccc(SSC(C)(C)C)cc2)ncc1C(=O)N[C@@H](CCN)C(=O)N(C)[C@@H]1C(=O)N[C@@H](C)C(=O)N[C@H](C(=O)NCC#N)Cc2ccc(OCCN)c(c2)-c2cc1ccc2OCCN |  |  |  |  |  |  |  |  |  |  |  |  |  |  |  |  | AUC(0-t) at 24 h [20]: 170 µg·h/mL; MRT [21]: 4.4 h; half-life [22]: 2.8 h; clearance [23]: 0.954 mL/min/kg; Vd [24]: 0.252 L/kg
